Laboratory results as given in patent publication US10065963B2 (Incyte Corporation, priority 2015, dated 2018).
Where a name gives a salt, the structure may show the parent alone. Read-outs that look alike come from different tables or passages of the source.

Tests used:
[1] = biological target: PI3Kδ (p110δ/p85α) Recombinant Human Protein (Homo sapiens (Human), UniProt O00329); test: PI3Kδ scintillation proximity assay; assay type: biochemical; conditions: 2 μM ATP, 20 μM PIP2
[2] = tested on: Phosphorylated Ribosomal Protein S6 (RPS6) in THP-1 cells; test: THP-1 RPS6 ELISA assay; assay type: cell-based, human; conditions: 10 nM MCP-1, read-out: PI3Kγ_THP1_RPS6_ELISA IC50
[3] = biological target: PI3Kγ (p110γ) Recombinant Human Protein (Homo sapiens (Human), UniProt P48736); test: PI3K-γ scintillation proximity assay; assay type: biochemical; conditions: 2 μM ATP, 20 μM PIP2
PI3Kγ (p110γ) Recombinant Human Protein, sequence (P48736 whole entry): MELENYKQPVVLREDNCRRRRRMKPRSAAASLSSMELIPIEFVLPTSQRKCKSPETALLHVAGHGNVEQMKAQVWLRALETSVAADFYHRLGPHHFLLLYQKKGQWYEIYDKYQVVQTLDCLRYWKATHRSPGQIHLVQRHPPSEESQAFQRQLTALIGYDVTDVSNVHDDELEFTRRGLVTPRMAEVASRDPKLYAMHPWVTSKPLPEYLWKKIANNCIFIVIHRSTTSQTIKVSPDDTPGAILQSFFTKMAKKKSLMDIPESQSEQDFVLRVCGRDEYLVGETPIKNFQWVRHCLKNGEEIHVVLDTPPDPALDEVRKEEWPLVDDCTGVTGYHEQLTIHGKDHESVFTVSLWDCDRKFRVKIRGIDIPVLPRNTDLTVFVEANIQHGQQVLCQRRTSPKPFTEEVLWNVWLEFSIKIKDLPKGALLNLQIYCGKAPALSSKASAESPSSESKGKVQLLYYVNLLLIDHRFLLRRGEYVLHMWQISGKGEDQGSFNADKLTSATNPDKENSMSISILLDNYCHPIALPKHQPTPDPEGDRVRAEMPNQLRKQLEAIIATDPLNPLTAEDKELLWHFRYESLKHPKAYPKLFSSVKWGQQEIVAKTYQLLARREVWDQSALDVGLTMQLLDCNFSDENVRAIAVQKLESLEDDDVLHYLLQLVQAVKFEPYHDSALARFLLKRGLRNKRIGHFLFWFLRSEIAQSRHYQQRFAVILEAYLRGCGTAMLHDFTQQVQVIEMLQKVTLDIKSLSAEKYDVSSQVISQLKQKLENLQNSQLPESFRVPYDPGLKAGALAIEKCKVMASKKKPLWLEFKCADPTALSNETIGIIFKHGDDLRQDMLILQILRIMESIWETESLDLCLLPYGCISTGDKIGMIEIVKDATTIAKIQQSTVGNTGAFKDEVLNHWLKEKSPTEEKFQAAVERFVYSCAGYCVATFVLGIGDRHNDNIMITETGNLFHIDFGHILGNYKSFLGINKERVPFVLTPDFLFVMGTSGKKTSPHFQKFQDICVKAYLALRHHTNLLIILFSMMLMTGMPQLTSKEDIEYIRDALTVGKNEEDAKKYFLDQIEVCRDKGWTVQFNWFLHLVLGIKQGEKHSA

[4] = Homo sapiens, THP-1, THP-1 cells

PI3Kδ (p110δ/p85α) Recombinant Human Protein, sequence (O00329 whole entry): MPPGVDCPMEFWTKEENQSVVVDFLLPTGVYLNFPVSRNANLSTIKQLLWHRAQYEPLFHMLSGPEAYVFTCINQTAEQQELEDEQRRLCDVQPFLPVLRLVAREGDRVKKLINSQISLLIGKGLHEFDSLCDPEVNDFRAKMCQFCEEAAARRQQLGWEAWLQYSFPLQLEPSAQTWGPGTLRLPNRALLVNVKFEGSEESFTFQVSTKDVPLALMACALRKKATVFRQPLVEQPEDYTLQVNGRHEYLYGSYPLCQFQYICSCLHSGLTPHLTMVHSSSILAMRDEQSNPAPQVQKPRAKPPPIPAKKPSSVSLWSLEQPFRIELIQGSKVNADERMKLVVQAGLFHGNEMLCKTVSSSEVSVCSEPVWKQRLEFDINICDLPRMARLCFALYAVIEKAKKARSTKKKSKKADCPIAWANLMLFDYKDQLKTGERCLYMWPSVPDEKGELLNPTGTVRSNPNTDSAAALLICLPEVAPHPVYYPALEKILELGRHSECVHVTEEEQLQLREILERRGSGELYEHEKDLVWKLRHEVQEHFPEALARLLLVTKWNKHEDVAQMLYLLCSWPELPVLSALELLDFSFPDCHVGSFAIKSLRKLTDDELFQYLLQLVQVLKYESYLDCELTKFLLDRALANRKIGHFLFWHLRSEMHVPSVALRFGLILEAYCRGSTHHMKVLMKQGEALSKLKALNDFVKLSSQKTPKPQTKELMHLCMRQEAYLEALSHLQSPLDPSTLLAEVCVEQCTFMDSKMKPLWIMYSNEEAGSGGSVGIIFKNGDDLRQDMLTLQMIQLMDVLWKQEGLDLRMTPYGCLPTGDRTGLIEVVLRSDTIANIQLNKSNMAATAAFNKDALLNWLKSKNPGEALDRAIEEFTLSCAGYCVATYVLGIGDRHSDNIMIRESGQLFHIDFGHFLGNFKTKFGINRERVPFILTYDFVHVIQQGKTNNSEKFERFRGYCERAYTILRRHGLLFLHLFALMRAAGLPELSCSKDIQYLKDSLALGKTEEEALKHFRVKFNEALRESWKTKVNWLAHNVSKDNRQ
PI3Kδ (p110δ/p85α) Recombinant Human Protein, sequence (P27986 whole entry partner): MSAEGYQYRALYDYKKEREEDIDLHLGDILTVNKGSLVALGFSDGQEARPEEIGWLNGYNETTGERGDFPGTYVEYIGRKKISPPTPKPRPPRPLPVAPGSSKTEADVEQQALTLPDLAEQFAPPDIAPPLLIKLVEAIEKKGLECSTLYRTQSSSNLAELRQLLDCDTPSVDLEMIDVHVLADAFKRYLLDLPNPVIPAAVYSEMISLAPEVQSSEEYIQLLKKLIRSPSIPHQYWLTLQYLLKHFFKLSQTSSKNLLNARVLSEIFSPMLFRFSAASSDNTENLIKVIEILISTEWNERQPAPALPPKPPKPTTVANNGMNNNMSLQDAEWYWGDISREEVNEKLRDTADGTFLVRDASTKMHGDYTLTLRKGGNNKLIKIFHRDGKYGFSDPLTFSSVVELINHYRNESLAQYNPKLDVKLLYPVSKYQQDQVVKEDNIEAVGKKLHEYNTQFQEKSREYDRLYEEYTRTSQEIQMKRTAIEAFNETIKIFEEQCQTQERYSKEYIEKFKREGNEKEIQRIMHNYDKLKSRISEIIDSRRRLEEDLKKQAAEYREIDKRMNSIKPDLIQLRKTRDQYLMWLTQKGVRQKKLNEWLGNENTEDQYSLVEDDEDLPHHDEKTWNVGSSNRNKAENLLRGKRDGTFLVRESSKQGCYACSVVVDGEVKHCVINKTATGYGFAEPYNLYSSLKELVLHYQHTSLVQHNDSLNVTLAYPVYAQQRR

Row | Structure (SMILES) | IC50 [1] | IC50 [2, 4] | IC50 [3] | IC50 ([2]; THP-1 cells)
1 | CC(NC(=O)c1c(N)nn2cccnc12)c1cc(Cl)c2c(Cl)cnn2c1N1CCS(=O)(=O)C(C)C1 (stereo not drawn) [Example 112A, 2-Amino-N-{1-[3,4-dichloro-7-(2-methyl-1,1-dioxidothiomorpholin-4-yl)pyrazolo[1,5-a]pyridin-6-yl]ethyl}pyrazolo[1,5-a]pyrimidine-3-carboxamide trifluoroacetate] | < 100 nM | < 500 nM | < 100 nM | –
2 | CC(NC(=O)c1c(N)nn2cccnc12)c1cc(Cl)c2c(C#N)ncn2c1N1CCS(=O)(=O)C(C)C1 (stereo not drawn) [Example 165, 2-Amino-N-(1-(8-chloro-1-cyano-5-(2-methyl-1,1-dioxidothiomorpholino)imidazo[1,5-a]pyridin-6-yl)ethyl)pyrazolo[1,5-a]pyrimidine-3-carboxamide trifluoroacetate salt] | < 2000 nM | < 500 nM | < 100 nM | –
3 | CC(C)C(NC(=O)c1c(N)nn2cccnc12)c1cc(Cl)c2cncn2c1N1CCS(=O)(=O)CC1 (racemic) [Example 181, 2-Amino-N-(1-(8-chloro-5-(1,1-dioxidothiomorpholino)imidazo[1,5-a]pyridin-6-yl)-2-methylpropyl)pyrazolo[1,5-a]pyrimidine-3-carboxamide trifluoroacetate salt] | < 100 nM | < 500 nM | < 100 nM | –
4 | Cc1nc(F)c2c(Cl)cc(C(C)NC(=O)c3c(N)nn4cccnc34)c(-c3cn[nH]c3)n12 (racemic) [Example 123, 2-Amino-N-{1-[8-chloro-1-fluoro-3-methyl-5-(1H-pyrazol-4-yl)imidazo[1,5-a]pyridin-6-yl]ethyl}pyrazolo[1,5-a]pyrimidine-3-carboxamide trifluoroacetate salt] | < 100 nM | < 500 nM | < 100 nM | –
5 | CC(NC(=O)c1c(N)nn2cccnc12)c1cc(Cl)c2ccnn2c1N1CCCS(=O)(=O)CC1 (stereo not drawn) [Example 109, 2-Amino-N-{1-[4-chloro-7-(1,1-dioxido-1,4-thiazepan-4-yl)pyrazolo[1,5-a]pyridin-6-yl]ethyl}pyrazolo[1,5-a]pyrimidine-3-carboxamide trifluoroacetate] | < 100 nM | < 500 nM | < 100 nM | –
6 | CC1(C)CN(c2c(CNC(=O)c3c(N)nn4cccnc34)cc(Cl)c3cncn23)CCS1(=O)=O [Example 168, 2-Amino-N-((8-chloro-5-(2,2-dimethyl-1,1-dioxido-thiomorpholino)imidazo[1,5-a]pyridin-6-yl)methyl) pyrazolo[1,5-a] pyrimidine-3-carboxamide trifluoroacetate salt] | < 2000 nM | – | < 100 nM | > 1000 nM
7 | CC(NC(=O)c1c(N)nn2cccnc12)c1cc(Cl)c2ccnn2c1N1CCS(=O)(=O)C(C)(C)C1 (stereo not drawn) [Example 111, 2-Amino-N-{1-[4-chloro-7-(2,2-dimethyl-1,1-dioxidothiomorpholin-4-yl)pyrazolo[1,5-a]pyridin-6-yl]ethyl}pyrazolo[1,5-a]pyrimidine-3-carboxamide trifluoroacetate] | < 100 nM | < 500 nM | < 100 nM | –
8 | CCOC(=O)C1CCN(c2c(C(C)NC(=O)c3c(N)nn4cccnc34)cc(Cl)c3cn[nH]c23)CC1 (stereo not drawn) [Example 106, Ethyl 1-[6-(1-{[(2-aminopyrazolo[1,5-a]pyrimidin-3-yl)carbonyl]amino}ethyl)-4-chloro-2H-indazol-7-yl]piperidine-4-carboxylate trifluoroacetate] | < 500 nM | > 1000 nM | < 100 nM | –
9 | CC(NC(=O)c1c(N)nn2cccnc12)c1cc(Cl)c2cncn2c1N1CC[C@H](F)C1 (stereo partly drawn) [Example 75B, 2-Amino-N-(1-{8-chloro-5-[(3S)-3-fluoropyrrolidin-1-yl]imidazo[1,5-a]pyridin-6-yl}ethyl)pyrazolo[1,5-a]pyrimidine-3-carboxamide bistrifluoroacetate] | < 100 nM | < 500 nM | < 100 nM | –
10 | CCOc1c(C(C)NC(=O)c2c(N)nc3ccc(Cl)nn23)cc(Cl)c2cn[nH]c12 (stereo not drawn) [Example 45, 2-Amino-6-chloro-N-(1-(4-chloro-7-ethoxy-1H-indazol-6-yl)ethyl)imidazo[1,2-b]pyridazine-3-carboxamide] | < 100 nM | < 500 nM | < 100 nM | –
11 | CC(NC(=O)c1c(N)nn2cccnc12)c1cc(Cl)c2cncn2c1N1CCCC(F)C1 (single isomer, unassigned) [Example 73A, 2-Amino-N-{1-[8-chloro-5-(3-fluoropiperidin-1-yl)imidazo[1,5-a]pyridin-6-yl]ethyl}pyrazolo[1,5-a]pyrimidine-3-carboxamide] | < 100 nM | < 500 nM | < 100 nM | –
12 | CC(NC(=O)c1c(N)nn2cccnc12)c1cc(Cl)c2cncn2c1N1CCN(S(C)(=O)=O)CC1 (racemic) [Example 141, 2-Amino-N-(1-{8-chloro-5-[4-(methylsulfonyl)piperazin-1-yl]imidazo[1,5-a]pyridin-6-yl}ethyl)pyrazolo[1,5-a]pyrimidine-3-carboxamide trifluoroacetate salt] | < 500 nM | < 500 nM | < 100 nM | –
13 | CC(NC(=O)c1c(N)nn2cccnc12)c1cc(Cl)c2cn[nH]c2c1OCC(O)CO (stereo not drawn) [Example 85, 2-Amino-N-(1-(4-chloro-7-(2,3-dihydroxypropoxy)-1H-indazol-6-yl)ethyl)pyrazolo[1,5-a]pyrimidine-3-carboxamide trifluoroacetate] | < 100 nM | < 500 nM | < 100 nM | –
14 | CC(NC(=O)c1c(N)nn2cccnc12)c1cc(Cl)c2cncn2c1N1CCOCC1 (racemic) [Example 145, 2-Amino-N-[1-(8-chloro-5-morpholin-4-ylimidazo[1,5-a]pyridin-6-yl)ethyl]pyrazolo[1,5-a]pyrimidine-3-carboxamide trifluoroacetate salt] | < 100 nM | > 1000 nM | < 100 nM | –
15 | CC(NC(=O)c1c(N)nn2cccnc12)c1cc(Cl)c2cncn2c1N1CCCC1(C)C (stereo not drawn) [Example 70, 2-Amino-N-{1-[8-chloro-5-(2,2-dimethylpyrrolidin-1-yl)imidazo[1,5-a]pyridin-6-yl]ethyl}pyrazolo[1,5-a]pyrimidine-3-carboxamide bistrifluoroacetate] | < 100 nM | < 500 nM | < 100 nM | –
16 | CC(=O)N[C@H]1CCN(c2c(C(C)NC(=O)c3c(N)nn4cccnc34)cc(Cl)c3cn[nH]c23)C1 (stereo partly drawn) [Example 95, N-(1-{7-[(3S)-3-(Acetylamino)pyrrolidin-1-yl]-4-chloro-2H-indazol-6-yl}ethyl)-2-aminopyrazolo[1,5-a]pyrimidine-3-carboxamide trifluoroacetate] | < 100 nM | < 1000 nM | < 100 nM | –
17 | CC(NC(=O)c1c(N)nn2cccnc12)c1cc(Cl)c2cncn2c1N1CCC2(CC1)COC(=O)N2 (stereo not drawn) [Example 79, 2-Amino-N-{1-[8-chloro-5-(2-oxo-3-oxa-1,8-diazaspiro[4.5]dec-8-yl)imidazo[1,5-a]pyridin-6-yl]ethyl}pyrazolo[1,5-a]pyrimidine-3-carboxamide trifluoroacetate] | < 500 nM | > 1000 nM | < 100 nM | –
18 | CC(NC(=O)c1c(N)nn2cccnc12)c1cc(Cl)c2cncn2c1N1CCC(C#N)C1 (racemic) [Example 32, 2-Amino-N-(1-(8-chloro-5-(3-cyanopyrrolidin-1-yl)imidazo[1,5-a]pyridin-6-yl)ethyl)pyrazolo[1,5-a]pyrimidine-3-carboxamide trifluoroacetate salt] | < 100 nM | < 500 nM | < 100 nM | –
19 | CCOc1c(C(C)NC(=O)c2c(N)nn3cccnc23)cc(Cl)c2cn[nH]c12 (single isomer, unassigned) [Example 3a, 2-amino-N-[1-(4-chloro-7-ethoxy-1H-indazol-6-yl)ethyl]pyrazolo[1,5-a]pyrimidine-3-carboxamide trifluoroacetate] | < 100 nM | < 500 nM | < 100 nM | –
20 | CCOC(=O)C1CC=C(c2c(C(C)NC(=O)c3c(N)nn4cccnc34)cc(Cl)c3cn[nH]c23)CC1 (stereo not drawn) [Example 97, Ethyl 4-[6-(1-{[(2-aminopyrazolo[1,5-a]pyrimidin-3-yl)carbonyl]amino}ethyl)-4-chloro-2H-indazol-7-yl]cyclohex-3-ene-1-carboxylate bistrifluoroacetate] | < 500 nM | < 1000 nM | < 100 nM | –
21 | CC(NC(=O)c1c(N)nn2cccnc12)c1cc(Cl)c2cncn2c1N1CCCC(C)(O)C1 (single isomer, unassigned) [Example 76A, 2-Amino-N-{1-[8-chloro-5-(3-hydroxy-3-methylpiperidin-1-yl)imidazo[1,5-a]pyridin-6-yl]ethyl}pyrazolo[1,5-a]pyrimidine-3-carboxamide trifluoroacetate] | < 100 nM | < 500 nM | < 100 nM | –
22 | C[C@H](NC(=O)c1c(N)nn2cccnc12)c1cc(Cl)c2cncn2c1N1CCS(=O)(=O)[C@H](C)C1 [Example 31A, 2-Amino-N-((1S)-1-(8-chloro-5-(2-methyl-1,1-dioxidothiomorpholino)imidazo[1,5-a]pyridin-6-yl)ethyl)pyrazolo[1,5-a]pyrimidine-3-carboxamide trifluoroacetate salt] | < 100 nM | < 500 nM | < 100 nM | –
23 | CC(NC(=O)c1c(N)nn2cccnc12)c1cc(Cl)c2cncn2c1N1CCC(F)CC1 (stereo not drawn) [Example 66, 2-Amino-N-{1-[8-chloro-5-(4-fluoropiperidin-1-yl)imidazo[1,5-a]pyridin-6-yl]ethyl}pyrazolo[1,5-a]pyrimidine-3-carboxamide bistrifluoroacetate] | < 100 nM | < 500 nM | < 100 nM | –
